Experimental data as given in US20240116864A1, “XANTHOPHYLL DERIVATIVES” (priority 2020, published 2024).

Tested on: Caco-2 cell homogenates
Experiment: Conversion of prodrug to parent compound (astaxanthin) in frozen/thawed unviable Caco-2 cell homogenates
Format: in vitro ADME
Source text: Formation of astaxanthin in resuspended Caco-2 cells previously frozen.
Human carboxylesterase 1 (hCE-1) and carboxylesterase 2 (hCE-2) are serine esterases involved in both drug metabolism and activation of prodrugs. The expression pattern of human carboxylesterase in Caco-2 (human colon adenocarcinoma) cell line is similar to human […] that expresses a much higher level of hCE-1 and lower level of hCE-2 (Drug Metab. Pharmacokinet. 21 (3): 173-185 (2006)).
Therefore, the formation of astaxanthin from compounds CCXX, CCXXI, CCXXII and CCXXVI was tested with Caco-2 cells that were frozen at −80° C. and thawed before testing. The freezing/thawing process without cryopreservants compromised the integrity of the membrane, as confirmed by positive staining of the dead cells with a dye exclusion method using trypan blue. Dead cells are not selective to compounds passing through the compromised membrane, eliminating the transport and permeation barriers to access the cell content and metabolic enzymes including the carboxylesterases.
The Caco-2 (colorectal adenocarcinoma) cellular line was obtained from Cordoba Cell Bank (CCB, CIQUIBIC, Cordoba, Argentina), #ATCC Passage: 18. #CCB Passage: 4. Culture conditions: Low Glucose DMEM (1 g/L)+Penicillin-Streptomycin+20% Fetal Bovine Serum (SFB). Cells were cultured in a 37° C. incubator with 5% CO2 on cell culture dishes. Once they reached confluence, cells were washed twice with Phosphate-buffered saline (PBS) and lifted after trypsinization. For trypsinization, 1 mL of trypsin was added, incubated for a few minutes in the 37° C. incubator, neutralized with supplemented culture medium and cells were collected in 15 mL tubes (Falcon). The tubes were centrifuged for 5 min at 1000 rpm, the supernatant was removed, and the cells were resuspended in supplemented medium. To determine the amount of viable (living) cells, a ½ dilution with trypan blue dye was made and counted in an automatic cell counter (more than 90% of live cells were measured). Finally, the tubes were centrifuged again, and cells were resuspended at a concentration of 5 million/mL in non-supplemented DMEM and placed in a −80° C. freezer. To determine the amount of non-viable cells after freezing and thawing, a ½ dilution with trypan blue dye was made and they were counted in an automatic cell counter and the dead cells were above 95%. Pools of unviable (“leaking”) cell homogenates were subsequently used for incubations with the compounds of interest.
A 1 mL frozen aliquot containing 5 million/mL of unviable Caco-2 cells was thawed and warmed at 37° C. A 0.010 mL aliquot of a stock solution of the compound in DMSO (2.5 mM) was added to the cells and incubated at 37 ° C. At selected timepoints, a 0.2 mL aliquot was removed and mixed with 0.5 mL of methanol containing retinyl acetate (0.011 mM) as an internal standard. The methanolic mixture was vigorously vortexed and 1 mL of chloroform was added to extract unreacted compound, astaxanthin and related compounds as well as the internal standard. After vigorous vortexing, the mixture was centrifuged at 8000 rpm for 10 min at 4° C. The chloroform phase was removed and dried under nitrogen flow. 1 mL of the sample solvent (THF/acetonitrile with 1% Formic acid) was added to the residue, mixed vigorously and filtered through a PVDF 0.22 um filter in a HPLC vial. The filtrate was stored in the autosampler at 5° C. and injected in the HPLC to measure the amount of internal standard, unreacted compound, free astaxanthin and its related compounds. The HPLC equipment was a UHPLC Nexera XR (Shimadzu)/PDA SPD-M3OA (Shimadzu) with a Shimpack GIST C18 100×2.1 mm, 2 um column at 40° C. Two HPLC methods were used, gradient and isocratic depending on the prodrug. Gradient method: flow 0.2 mL/m, mobile phase A (MPA): water with formic acid 0.1%, mobile phase B (MPB): acetonitrile with formic acid 0.1%, gradient: time 0 m 60/40, 2.5 m 10/90, 10.4 m 10/90. UV(PDA) detector 380 and 325 nm (for retinyl acetate). […]

[1] = unviable Caco-2 cells 5 million/mL, 37 °C, HPLC

SMILES	Conversion to trans-astaxanthin [1]	Conversion efficiency to trans-astaxanthin (comparison between compounds) [1]	Conversion to astaxanthin monoester (Caco-2)	Stability over the same time frame (Caco-2)
CC1=C(/C=C/C(C)=C/C=C/C(C)=C/C=C/C=C(C)/C=C/C=C(C)/C=C/C2=C(C)C(=O)[C@@H](OC(=O)[C@@H](C)NC(=O)c3cccnc3)CC2(C)C)C(C)(C)C[C@H](OC(=O)[C@H](C)NC(=O)c2cccnc2)C1=O [CCXXII]	observed			
CC1=C(/C=C/C(C)=C/C=C/C(C)=C/C=C/C=C(C)/C=C/C=C(C)/C=C/C2=C(C)C(=O)[C@@H](OC(=O)CCNC(=O)c3cccnc3)CC2(C)C)C(C)(C)C[C@H](OC(=O)CCNC(=O)c2cccnc2)C1=O [CCXXI, (all-E)-3S,3′S-astaxanthin-di-N-nicotinoyl-β-alaninate]	observed			
CC1=C(/C=C/C(C)=C/C=C/C(C)=C/C=C/C=C(C)/C=C/C=C(C)/C=C/C2=C(C)C(=O)[C@@H](OC(=O)CNC(=O)c3cccnc3)CC2(C)C)C(C)(C)C[C@H](OC(=O)CNC(=O)c2cccnc2)C1=O [CCXX, (all-E)-3S,3′S-Astaxanthin-di-N-nicotinoglycinate]	observed	higher conversion efficiency to trans-astaxanthin than CCXXI and CCXXII		
CC1=C(/C=C/C(C)=C/C=C/C(C)=C/C=C/C=C(C)/C=C/C=C(C)/C=C/C2=C(C)C(=O)[C@@H](OC(=O)[C@H](NC(=O)c3cccnc3)C(C)C)CC2(C)C)C(C)(C)C[C@H](OC(=O)[C@@H](NC(=O)c2cccnc2)C(C)C)C1=O [CCXXVI]			only a small amount	stable
